As usually defined, the IC50 is the point on the concentration scale where inhibition reaches its midpoint.

Some results are limits rather than exact numbers.

For test [1], the system named is MOLM-13. Description: Antiproliferative activity against FLT3-dependent human MOLM-13 cells expressing FLT3 ITD mutant assessed as reduction in cell viability incubated for 72 hrs by luminescence based assay. The class given is functional. The following applies: MOLM-13, 72 h.
Test [2] deals with T1, Receptor-type tyrosine-protein kinase FLT3 (Homo sapiens, UniProt P36888, ITD). Description: Inhibition of FLT3-ITD mutant (unknown origin) using biotin-tagged TK substrate preincubated for 10 mins followed by substrate and ATP addition and measured after 40 mins by ADP-Glo Kinase Assay.
For test [3], the target named is T1, Receptor-type tyrosine-protein kinase FLT3. Description: Inhibition of FLT3-ITD mutant (unknown origin).

T1 sequence (P36888 whole entry, looked up, stated change not applied): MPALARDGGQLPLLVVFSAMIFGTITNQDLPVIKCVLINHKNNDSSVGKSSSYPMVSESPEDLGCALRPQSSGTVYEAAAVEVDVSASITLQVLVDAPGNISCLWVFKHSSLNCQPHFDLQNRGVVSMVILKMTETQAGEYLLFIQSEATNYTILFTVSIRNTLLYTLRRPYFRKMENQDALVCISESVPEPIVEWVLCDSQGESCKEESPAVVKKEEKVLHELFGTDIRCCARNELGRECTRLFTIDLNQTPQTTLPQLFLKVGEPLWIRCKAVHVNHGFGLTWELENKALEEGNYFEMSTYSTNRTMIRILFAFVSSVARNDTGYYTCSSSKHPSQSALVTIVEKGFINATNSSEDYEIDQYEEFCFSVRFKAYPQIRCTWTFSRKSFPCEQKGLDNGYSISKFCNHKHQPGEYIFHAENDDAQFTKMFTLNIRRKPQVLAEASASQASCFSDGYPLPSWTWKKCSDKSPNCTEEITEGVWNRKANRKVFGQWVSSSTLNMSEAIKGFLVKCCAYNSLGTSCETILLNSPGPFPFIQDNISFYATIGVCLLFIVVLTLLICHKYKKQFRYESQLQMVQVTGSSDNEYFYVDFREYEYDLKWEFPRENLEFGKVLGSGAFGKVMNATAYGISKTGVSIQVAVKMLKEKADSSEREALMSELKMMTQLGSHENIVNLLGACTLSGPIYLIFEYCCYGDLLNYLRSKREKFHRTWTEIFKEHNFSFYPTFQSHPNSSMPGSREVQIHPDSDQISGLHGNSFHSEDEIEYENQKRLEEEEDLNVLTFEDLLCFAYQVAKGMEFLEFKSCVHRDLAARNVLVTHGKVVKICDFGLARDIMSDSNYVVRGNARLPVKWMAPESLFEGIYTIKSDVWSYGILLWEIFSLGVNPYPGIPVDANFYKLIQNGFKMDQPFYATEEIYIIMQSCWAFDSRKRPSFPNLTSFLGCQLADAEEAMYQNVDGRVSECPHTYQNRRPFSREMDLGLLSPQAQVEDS

On to `CCc1nc(C(N)=O)c(Nc2ccc(N3CCN(C(=O)C45CC6CC(CC(C6)C4)C5)CC3)c(OC)c2)nc1NC1CCOCC1`, for which the IC50 in test [1] is 1340 nM. Consider `CCc1nc(C(N)=O)c(Nc2ccc(N3CCC(N4CCN(C(=O)C56C7C8C5C5C6C7C85C(=O)OC)CC4)CC3)c(OC)c2)nc1NC1CCOCC1` (stereo not given), for which the figures for the concentration for half-maximal inhibition (IC50) in test [2] and in test [1] were 2.12 nM and 25.6 nM, respectively. Taken in the same sequence, the figures for `CCc1nc(C(N)=O)c(Nc2ccc(N3CCC(N4CCN(C(=O)C5CC6C=CC5C6)CC4)CC3)c(OC)c2)nc1NC1CCOCC1` (stereo not given) were 4.83 nM and 54.6 nM. Consider `CCc1nc(C(N)=O)c(Nc2ccc(N3CCC(NC(=O)C4c5ccccc5-c5ccccc54)CC3)c(OC)c2)nc1NC1CCOCC1`, for which the half-inhibitory concentration (IC50) in test [1] was 147 nM. With `CCc1nc(C(N)=O)c(Nc2ccc(N3CCC(NC(=O)C45C6C7C4C4C5C6C74C(=O)OC)CC3)c(OC)c2)nc1NC1CCOCC1` (stereo not given), the IC50 in test [2] was found to be 6.1 nM; in test [1], 87.4 nM. With `CCc1nc(C(N)=O)c(Nc2ccc(N3CCC(N4CCN(C(=O)C5c6ccccc6-c6ccccc65)CC4)CC3)c(OC)c2)nc1NC1CCOCC1`, the IC50 in test [1] came out at 154 nM. The same measure, in the same setting: then `CCc1nc(C(N)=O)c(Nc2ccc(N3CCN(C(=O)C45C6C7C4C4C5C6C74C(=O)OC)CC3)c(OC)c2)nc1NC1CCOCC1` (stereo not given), with 111 nM; and `CCCCCCCC/C=C\CCCCCCCC(=O)N1CCN(c2ccc(Nc3nc(NC4CCOCC4)c(CC)nc3C(N)=O)cc2OC)CC1`, with 2440 nM; and `CCCCCCCC/C=C\CCCCCCCC(=O)NC1CCN(c2ccc(Nc3nc(NC4CCOCC4)c(CC)nc3C(N)=O)cc2OC)CC1`, with 745 nM.

In the case of `CCc1nc(C(N)=O)c(Nc2ccc(N3CCC(NC(=O)C45CC6CC(CC(C6)C4)C5)CC3)c(OC)c2)nc1NC1CCOCC1`, the IC50 in test [1] came to 992 nM.

The compound `COc1cc(N)ccc1N1CCC(N2CCN(C(=O)OC(C)(C)C)CC2)CC1` had a 50% inhibitory concentration (IC50) in test [3] of 511 nM.

In the case of `CCc1nc(C(N)=O)c(Nc2ccc(N3CCC(NC(=O)C4CC5C=CC4C5)CC3)c(OC)c2)nc1NC1CCOCC1` (stereo not given), the IC50 in test [2] came to 3.06 nM; in test [1], 55 nM.

With `CCc1nc(C(N)=O)c(Nc2ccc(N3CCN(C(=O)OC(C)(C)C)CC3)c(OC)c2)nc1NC1CCOCC1`, inhibition in test [3] was half-maximal at 370 nM (IC50). Consider `CCc1nc(C(N)=O)c(Nc2ccc(N3CCC(N4CCN(C(=O)C56CC7CC(CC(C7)C5)C6)CC4)CC3)c(OC)c2)nc1NC1CCOCC1`, for which the IC50 in test [1] worked out at 188 nM. Regarding `CCc1nc(C(N)=O)c(Nc2ccc(N3CCN(C(=O)C4CC5C=CC4C5)CC3)c(OC)c2)nc1NC1CCOCC1` (stereo not given), the IC50 was found to be 1.29 nM in test [2] and 63.4 nM in test [1]. `CCc1nc(C(N)=O)c(Nc2ccc(N3CCN(C(=O)C4c5ccccc5-c5ccccc54)CC3)c(OC)c2)nc1NC1CCOCC1`: the half-maximal inhibitory concentration (IC50) in test [1] was 142 nM.

For the compound `CCCCCCCC/C=C\CCCCCCCC(=O)N1CCN(C2CCN(c3ccc(Nc4nc(NC5CCOCC5)c(CC)nc4C(N)=O)cc3OC)CC2)CC1`, in test [1], the IC50 was more than 10000 nM. With `CC(C)(C)OC(=O)N1CCNCC1`, it took 560 nM to reach half-maximal inhibition in test [3] (IC50). With `CCc1nc(C(N)=O)c(Nc2ccc(N3CCC(N4CCN(C)CC4)CC3)c(OC)c2)nc1NC1CCOCC1` [GILTERITINIB], the IC50 in test [1] was 22.4 nM. In test [3], `CCCCCCCC/C=C\CCCCCCCC(=O)O` [OLEIC ACID] had an IC50 of 511 nM.

The values above are taken from ChEMBL document CHEMBL6120987, “Identification of inhibitors targeting the FLT3-ITD mutation through 4D-QSAR, in vitro, and in silico” (Eur J Med Chem, 2025).
